Consider two compounds from PMC8125440, “A Novel N-Tert-Butyl Derivatives of Pseudothiohydantoin as Potential Target in Anti-Cancer Therapy” (Molecules, 2021).

Test [1] has as its target T1, 11β-hydroxysteroid dehydrogenase type 2 (11β-HSD2) (Homo sapiens, UniProt P80365).
T1 construct: gene HSD11B2
T1 sequence (P80365 1-405): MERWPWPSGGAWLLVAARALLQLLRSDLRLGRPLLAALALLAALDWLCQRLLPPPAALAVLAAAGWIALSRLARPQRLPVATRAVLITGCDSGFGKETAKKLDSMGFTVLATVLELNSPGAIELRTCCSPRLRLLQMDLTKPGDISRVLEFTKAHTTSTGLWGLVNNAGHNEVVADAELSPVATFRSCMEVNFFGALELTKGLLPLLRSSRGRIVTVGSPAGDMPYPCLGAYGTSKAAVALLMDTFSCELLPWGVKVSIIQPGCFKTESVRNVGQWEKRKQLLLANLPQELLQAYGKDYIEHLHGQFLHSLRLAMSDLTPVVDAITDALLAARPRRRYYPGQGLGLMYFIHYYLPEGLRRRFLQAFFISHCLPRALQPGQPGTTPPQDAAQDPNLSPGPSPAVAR
The experiment in a line: cortisol to cortisone conversion in human kidney microsomes, cortisol ELISA. It counts as cell-based. Background: An ELISA detects its analyte on a solid surface through an enzyme-linked reagent.

The target in test [2] is T2, 11β-hydroxysteroid dehydrogenase type 1 (11β-HSD1) (Homo sapiens, UniProt P28845).
T2 construct: gene HSD11B1
As to the kind of experiment: cortisone to cortisol conversion in pooled human liver microsomes, cortisol ELISA. The class given is cell-based. On the technique in general: Liver microsomes are a subcellular fraction often used to study metabolism.

Each structure is given as a SMILES string.

T2 sequence (P28845 whole entry): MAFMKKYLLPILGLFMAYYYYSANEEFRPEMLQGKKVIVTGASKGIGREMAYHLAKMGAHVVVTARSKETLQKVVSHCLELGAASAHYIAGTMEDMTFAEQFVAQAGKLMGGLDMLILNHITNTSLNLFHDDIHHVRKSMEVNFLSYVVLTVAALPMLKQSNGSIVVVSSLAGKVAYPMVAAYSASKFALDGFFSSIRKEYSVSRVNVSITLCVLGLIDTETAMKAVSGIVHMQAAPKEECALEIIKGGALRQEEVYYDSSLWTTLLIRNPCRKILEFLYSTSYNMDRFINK

In turn, `CC(C)(C)NC1=NC(=O)C(c2ccccc2)S1` (centres unmarked) [3f, 2-(tert-Butylamino)-5-phenylthiazol-4(5H)-one] registered an inhibition at 10 µM in test [1] of 53.6%.
For the compound `CC(C)(C)NC1=NC(=O)C2(CCCCC2)S1` [3h, 2-(tert-Butylamino)-1-thia-3-azaspiro[4.5]dec-2-en-4-one], the inhibition at 10 µM in test [2] was determined as 82.5%.

One may read the inhibition as the percentage by which the read-out fell short of the control. Read a low inhibition as a response near the control.
